Values joined by “and” are separate entries in the source; they are usually repeats but may differ in a detail not shown here. Equal entries are not always repeated.
Test system: GEMS receptors with CBPvene (Bcl2–LD3 and Bcl2high variants), STAT3-driven SEAP in HEK293T cells
Assay: GEMS SEAP reporter assay, CBPvene (Bcl2high, LD3-v and Bcl2-v variants) with venetoclax
Type: cell-based
[1] = CBPVene-v4, Venetoclax 10000 nM
[2] = CBPVene-v4-Bcl2v2, Venetoclax 1 nM
[3] = CBPVene-v4-Bcl2v2, Venetoclax 3.16 nM
[4] = CBPVene-v4-Bcl2v2, Venetoclax 10 nM
[5] = CBPVene-v4-Bcl2v2, Venetoclax 31.6 nM
[6] = CBPVene-v4-Bcl2v2, Venetoclax 100 nM
[7] = CBPVene-v4-Bcl2v2, Venetoclax 316 nM
[8] = CBPVene-v4-Bcl2v2, Venetoclax 1000 nM
[9] = CBPVene-v4-Bcl2v2, Venetoclax 3160 nM
[10] = CBPVene-v4-Bcl2v2, Venetoclax 10000 nM
[11] = CBPVene-v4-LD3v1, Venetoclax 1 nM
[12] = CBPVene-v4-LD3v1, Venetoclax 3.16 nM

Q: How did the “Raw data of Independent repeat of CBPVene-v4 vs CBPVene-v4-LD3v1” value (“Raw data … vs CBPVene-v4-LD3v1” below) (CBPVene-v4, Venetoclax 0.01 nM) turn out when `CC1(C)CCC(CN2CCN(c3ccc(C(=O)NS(=O)(=O)c4ccc(NCC5CCOCC5)c([N+](=O)[O-])c4)c(Oc4cnc5[nH]ccc5c4)c3)CC2)=C(c2ccc(Cl)cc2)C1` [Venetoclax] was run?
A: 35.2999 and 34.8178 and 35.7656

Q: And the “Normalized data Figure 5c” value (CBPVene-v4, Venetoclax 1 nM)?
A: 4.2459 and 4.713 and 4.374

Q: And the “Normalized data Figure 5f” value (CBPVene-v4, Venetoclax 1 nM)?
A: 3.9625 and 4.391 and 3.175

Q: And the “Raw data Figure 5c” value (CBPVene-v4, Venetoclax 1 nM)?
A: 40.3634 and 39.0365 and 35.7348

Q: And the “Raw data Figure 5f” value (CBPVene-v4, Venetoclax 1 nM)?
A: 25.8055 and 26.2397 and 18.4029

Q: What about the “Raw data … vs CBPVene-v4-LD3v1” value (CBPVene-v4, Venetoclax 1 nM) of the same molecule?
A: 38.7674 and 35.097 and 34.871

Q: What about the “Normalized data Figure 5c” value (CBPVene-v4, Venetoclax 3.16 nM) of the same molecule?
A: 3.941 and 4.809 and 4.361

Q: And the “Normalized data Figure 5f” value (CBPVene-v4, Venetoclax 3.16 nM)?
A: 3.622 and 4.227 and 3.164

Q: What about the “Raw data Figure 5c” value (CBPVene-v4, Venetoclax 3.16 nM) of the same molecule?
A: 37.466 and 39.8351 and 35.629

Q: And the “Raw data Figure 5f” value (CBPVene-v4, Venetoclax 3.16 nM)?
A: 23.589 and 25.2624 and 18.3382

Q: What about the “Raw data … vs CBPVene-v4-LD3v1” value (CBPVene-v4, Venetoclax 3.16 nM) of the same molecule?
A: 37.9892 and 34.5814 and 35.8384

Q: And the “Normalized data Figure 5c” value (CBPVene-v4, Venetoclax 10 nM)?
A: 8.251 and 9.2534 and 8.61

Q: What about the “Normalized data Figure 5f” value (CBPVene-v4, Venetoclax 10 nM) of the same molecule?
A: 5.138 and 5.367 and 4.508

Q: What about the “Raw data Figure 5c” value (CBPVene-v4, Venetoclax 10 nM) of the same molecule?
A: 78.4344 and 76.6512 and 70.3479

Q: What about the “Raw data Figure 5f” value (CBPVene-v4, Venetoclax 10 nM) of the same molecule?
A: 33.4586 and 32.0727 and 26.1315

Q: What about the “Raw data … vs CBPVene-v4-LD3v1” value (CBPVene-v4, Venetoclax 10 nM) of the same molecule?
A: 40.747 and 40.7067 and 37.4113

Q: What about the “Normalized data Figure 5c” value (CBPVene-v4, Venetoclax 31.6 nM) of the same molecule?
A: 23.4087 and 23.5513 and 23.3621

Q: What about the “Normalized data Figure 5f” value (CBPVene-v4, Venetoclax 31.6 nM) of the same molecule?
A: 15.4727 and 18.6639 and 9.968

Q: What about the “Raw data Figure 5c” value (CBPVene-v4, Venetoclax 31.6 nM) of the same molecule?
A: 222.533 and 195.089 and 190.881

Q: What about the “Raw data Figure 5f” value (CBPVene-v4, Venetoclax 31.6 nM) of the same molecule?
A: 100.765 and 111.541 and 57.7785

Q: What about the “Raw data … vs CBPVene-v4-LD3v1” value (CBPVene-v4, Venetoclax 31.6 nM) of the same molecule?
A: 75.7769 and 63.5945 and 72.9306

Q: What about the “Normalized data Figure 5c” value (CBPVene-v4, Venetoclax 100 nM) of the same molecule?
A: 64.2766 and 73.1224 and 63.32

Q: And the “Normalized data Figure 5f” value (CBPVene-v4, Venetoclax 100 nM)?
A: 42.576 and 45.1446 and 47.2654

Q: What about the “Raw data Figure 5c” value (CBPVene-v4, Venetoclax 100 nM) of the same molecule?
A: 611.042 and 605.715 and 517.36

Q: And the “Raw data Figure 5f” value (CBPVene-v4, Venetoclax 100 nM)?
A: 277.273 and 269.798 and 273.956

Q: What about the “Raw data … vs CBPVene-v4-LD3v1” value (CBPVene-v4, Venetoclax 100 nM) of the same molecule?
A: 129.31 and 117.373 and 126.839

Q: And the “Normalized data Figure 5c” value (CBPVene-v4, Venetoclax 316 nM)?
A: 100

Q: And the “Normalized data Figure 5f” value (CBPVene-v4, Venetoclax 316 nM)?
A: 68.7371 and 83.2998 and 76.2167

Q: And the “Raw data Figure 5c” value (CBPVene-v4, Venetoclax 316 nM)?
A: 950.644 and 828.357 and 817.055

Q: And the “Raw data Figure 5f” value (CBPVene-v4, Venetoclax 316 nM)?
A: 447.645 and 497.825 and 441.762

Q: What about the “Raw data … vs CBPVene-v4-LD3v1” value (CBPVene-v4, Venetoclax 316 nM) of the same molecule?
A: 169.324 and 158.179 and 180.661

Q: And the “Normalized data Figure 5c” value (CBPVene-v4, Venetoclax 1000 nM)?
A: 99.3535 and 99.2484 and 89.7215

Q: And the “Normalized data Figure 5f” value (CBPVene-v4, Venetoclax 1000 nM)?
A: 100

Q: And the “Raw data Figure 5c” value (CBPVene-v4, Venetoclax 1000 nM)?
A: 944.498 and 822.131 and 733.074

Q: And the “Raw data Figure 5f” value (CBPVene-v4, Venetoclax 1000 nM)?
A: 651.243 and 597.631 and 579.613

Q: What about the “Raw data … vs CBPVene-v4-LD3v1” value (CBPVene-v4, Venetoclax 1000 nM) of the same molecule?
A: 146.952 and 139.539 and 151.905

Q: What about the “Normalized data Figure 5c” value (CBPVene-v4, Venetoclax 3160 nM) of the same molecule?
A: 79.357 and 89.4953 and 82.0208

Q: What about the “Normalized data Figure 5f” value (CBPVene-v4, Venetoclax 3160 nM) of the same molecule?
A: 65.0047 and 75.3611 and 76.07

Q: And the “Raw data Figure 5c” value (CBPVene-v4, Venetoclax 3160 nM)?
A: 754.403 and 741.34 and 670.156

Q: And the “Raw data Figure 5f” value (CBPVene-v4, Venetoclax 3160 nM)?
A: 423.338 and 450.382 and 440.912

Q: And the “Raw data … vs CBPVene-v4-LD3v1” value (CBPVene-v4, Venetoclax 3160 nM)?
A: 80.4284 and 77.0562 and 76.9119

Q: What about the “Normalized data Figure 5c” value [1] of the same molecule?
A: 37.7692 and 41.8946 and 33.9505

Q: What about the “Normalized data Figure 5f” value [1] of the same molecule?
A: 42.6019 and 46.7992 and 47.9312

Q: What about the “Raw data Figure 5c” value [1] of the same molecule?
A: 359.051 and 347.036 and 277.394

Q: What about the “Raw data Figure 5f” value [1] of the same molecule?
A: 277.442 and 279.687 and 277.816

Q: And the “Raw data … vs CBPVene-v4-LD3v1” value [1]?
A: 30.3195 and 25.7432 and 26.899

Q: And the “Normalized data Figure 5f” value [2]?
A: 10.7266 and 9.876 and 10.4991

Q: What about the “Raw data Figure 5f” value [2] of the same molecule?
A: 31.1918 and 36.3952 and 31.7379

Q: What about the “Normalized data Figure 5f” value [3] of the same molecule?
A: 10.8133 and 9.981 and 9.46

Q: What about the “Raw data Figure 5f” value [3] of the same molecule?
A: 31.4437 and 36.7806 and 28.5959

Q: What about the “Normalized data Figure 5f” value [4] of the same molecule?
A: 12.5098 and 10.2311 and 12.3238

Q: What about the “Raw data Figure 5f” value [4] of the same molecule?
A: 36.377 and 37.7021 and 37.2539

Q: And the “Normalized data Figure 5f” value [5]?
A: 23.9871 and 21.8452 and 18.9874

Q: And the “Raw data Figure 5f” value [5]?
A: 69.7518 and 80.5008 and 57.3972

Q: And the “Normalized data Figure 5f” value [6]?
A: 72.8611 and 61.7154 and 72.9933

Q: What about the “Raw data Figure 5f” value [6] of the same molecule?
A: 211.871 and 227.425 and 220.652

Q: And the “Normalized data Figure 5f” value [7]?
A: 100

Q: What about the “Raw data Figure 5f” value [7] of the same molecule?
A: 290.788 and 368.506 and 302.291

Q: What about the “Normalized data Figure 5f” value [8] of the same molecule?
A: 80.3655 and 74.9934 and 84.5393

Q: What about the “Raw data Figure 5f” value [8] of the same molecule?
A: 233.694 and 276.355 and 255.555

Q: What about the “Normalized data Figure 5f” value [9] of the same molecule?
A: 44.2102 and 40.566 and 46.2986

Q: What about the “Raw data Figure 5f” value [9] of the same molecule?
A: 128.558 and 149.488 and 139.957

Q: And the “Normalized data Figure 5f” value [10]?
A: 14.2742 and 12.3963 and 14.8986

Q: And the “Raw data Figure 5f” value [10]?
A: 41.5078 and 45.6809 and 45.0373

Q: And the “Raw data … vs CBPVene-v4-LD3v1” value (CBPVene-v4-LD3v1, Venetoclax 0.01 nM)?
A: 13.3313 and 13.792 and 13.1319

Q: And the “Normalized data Figure 5c” value [11]?
A: 19.7956 and 13.458 and 12.3801

Q: And the “Raw data Figure 5c” value [11]?
A: 19.1053 and 16.682 and 17.9097

Q: What about the “Raw data … vs CBPVene-v4-LD3v1” value [11] of the same molecule?
A: 12.6379 and 12.8648 and 13.2123

Q: What about the “Normalized data Figure 5c” value [12] of the same molecule?
A: 17.4061 and 14.8696 and 11.4945

Q: What about the “Raw data Figure 5c” value [12] of the same molecule?
A: 16.7992 and 18.4317 and 16.6285

Q: And the “Raw data … vs CBPVene-v4-LD3v1” value [12]?
A: 10.9947 and 13.5809 and 10.4154

Q: What about the “Normalized data Figure 5c” value (CBPVene-v4-LD3v1, Venetoclax 10 nM) of the same molecule?
A: 20.3471 and 18.6998 and 14.8112

Source: publication PMC11062894, “Protein-based bandpass filters for controlling cellular signaling with chemical inputs” (Nature Chemical Biology, 2023)
